Data from a melting point compilation (Tetko et al.; mined from patent text by program, amines drawn as free bases though some values may be those of a salt).

Row | SMILES | melting point
1 | OCCCNc1nc2ccccc2n1-c1ccccc1 | 116 to 118 °C
2 | CN1C(=O)C(=CNc2ccncc2)C(=O)N(C)C1=O | 233 to 235 °C
3 | COc1ccc(-c2cnn3c(-c4cccc(NC(=O)CC(C)C)c4)ccnc23)cc1C=O | 187 to 189 °C
4 | Cc1c(C(=O)Nc2ccc(N3CCC(O)CC3)c(C#N)c2)cnn1-c1ccc(Cl)cc1 | 247 °C
5 | CC(C)Sc1cc2c3cc(SC(C)C)c(SC(C)C)cc3c3cc(SC(C)C)c(SC(C)C)cc3c2cc1SC(C)C | 165 to 168 °C
6 | COc1ccc(C2Sc3ccccc3NC(=O)C2OC(C)=O)cc1 (stereo unspecified) | 193 to 195 °C
7 | O=S(=O)(CCCCl)c1ccccc1 | 55 to 58 °C
8 | NC(=O)c1sc(-c2ccccc2)cc1N | 180 to 182 °C
9 | O[C@H]1[C@H](O)CS[C@H]1n1cnc2c(Cl)nc(Cl)nc21 | 198 to 200 °C
10 | COC(=O)c1ccc(-c2nc3cc([N+](=O)[O-])c([N+](=O)[O-])cc3[nH]2)cc1 | 239 to 240 °C
11 | Cc1cc(NC(=O)c2cnn(-c3ccc(C(F)(F)F)cc3)c2C)ccc1N1CCC(N2CCOCC2)CC1 | 252 to 255 °C
12 | NC(=O)N1C(=O)C(C(=O)c2ccccc2)c2nc(Cl)ccc21 (stereo unspecified) | 220 °C
13 | O=C1Nc2cc(F)c(F)cc2N2CCNCC12 (stereo unspecified) | 226 to 228 °C
14 | O=c1[nH]c(-c2ccccc2)c(F)c(=O)n1-c1ccc(OC(F)(F)F)cc1 | 295 to 303 °C
15 | CN(C)S(=O)(=O)Nc1ccc(C(=O)Nc2ccccc2)cc1 | 213 to 215 °C
16 | O=Cc1c[nH]c(-c2ccccc2)c1 | 136 to 137 °C
17 | COc1ccc(Nc2nc(Cl)nc(Cl)n2)cc1Cl | 165 °C
18 | NS(=O)(=O)c1ccc(-c2cscc2-c2ccccc2)cc1F | 171 °C
19 | Nc1cc(Cl)c(Oc2ccc(Cl)cc2)cc1C(=O)O | 160 to 170 °C
20 | COC(=S)N=C(N)SC | 75 to 76 °C
21 | CS(=O)(=O)Oc1ccc(-c2c3ccccc3c(I)c3sc4ccccc4c23)cc1 | 176 to 186 °C
22 | CNC(=O)c1cc(N)cc(C(F)(F)F)c1 | 113 to 115 °C

Row | SMILES | melting point
23 | CCOC(=O)C(C)(C)Oc1ccc(-c2ccc(CCNC(=O)c3cc(OC)cc(OC)c3)cc2)cc1 | 74 °C
24 | CC(C)(C#N)c1cc(C=O)cc(C(C)(C)C#N)c1 | 145 to 147 °C
25 | O=c1[nH]c2cc(F)c(Cl)c(F)c2[nH]c1=O | > 250 °C
26 | CCC(C)(C)c1cc(C(C)c2cc(C(C)(C)CC)cc(C(C)(C)CC)c2O)c(O)c(C(C)(C)CC)c1 | 116 to 118 °C
27 | COc1ccc2c(ccn2-c2ccc(Br)cc2)c1 | 90 to 91 °C
28 | O=C1c2cccc(SCc3ccccc3)c2C(=O)c2cccc(SCc3ccccc3)c21 | 281 to 282 °C
29 | Nc1nc2ccccc2c2c1ncn2CCNC(=O)c1ccccc1 | 295 °C
30 | O=C(/C=C/c1ccc(O)cc1Cl)CC(=O)/C=C/c1ccc(O)cc1Cl | 248 to 254 °C
31 | COc1ccc(Nc2c([N+](=O)[O-])ccc(Cl)c2C(=O)O)cc1 | 205 to 213 °C
32 | CC(C)C(=O)NCCc1ccc(NC(=O)C=C2CC(C(=O)O)Nc3cc(Cl)cc(Cl)c32)cc1 (racemic) | 216 to 218 °C
33 | COc1cc2c3ccc(OC)c(OC)c3n(CCCc3ccccc3)c2cc1OC | 116 to 118 °C
34 | O=S(c1cc(Cl)c(-n2cccn2)c(Cl)c1)C(F)(F)F (stereo unspecified) | 86 to 91 °C
35 | N#Cc1cccc2c1COc1ccc(OCc3ccc4cc(F)c(Cl)cc4n3)cc1C2SCCC(=O)O (stereo unspecified) | 125 to 128 °C
36 | O=C(CCNc1c(C(=O)O)[nH]c2cc(Cl)cc(Cl)c12)c1ccccc1Cc1ccccc1 | 280 to 283 °C
37 | CC(C)(C)OC(=O)CN(C(=O)CNC(=O)c1cc2ccccc2[nH]1)c1ccccc1 | 203 °C
38 | Cc1ccccc1CC(=NC#N)NC(NC(=O)CCCc1cccs1)C(C)(C)C (stereo unspecified) | 154 to 155 °C
39 | O=C(c1cccs1)c1cnn2c(-c3cccs3)ccnc12 | 193 to 195 °C
40 | Nc1ccccc1NC(=O)c1ccc(C(=O)Nc2cccc(Nc3nc(-c4cccnc4)cs3)c2)s1 | 222 °C
41 | CC(c1ccc2c(c1)N(Cc1ccc(S(C)(=O)=O)cc1)c1ccccc1S2)N(O)C(N)=O (stereo unspecified) | 143 to 145 °C
42 | O=C(CC(F)=C(F)F)Nc1ccc(S(=O)(=O)O)cc1 | > 300 °C
43 | COc1cc2ncc(C#N)c(Nc3ccc(C)cc3O)c2cc1OC | > 250 °C

The next lines start with the values.

Row | melting point | SMILES
44 | 157 to 159 °C | Cc1oc(-c2ccc(SC(F)(F)F)cc2)nc1CCOc1ccc(CN(O)C(N)=O)cc1
45 | 159 to 161 °C | CCCC(=O)c1cnc2c(OC)cccc2c1Nc1ccccc1CO
46 | 152 to 155 °C | CCOC(=O)c1cnc2n(c1=O)-c1ccccc1N(C(C)=O)C2
47 | 241 °C | CC(=O)N1CCN(c2cc(-c3cnc4c(c3)N(Cc3cc(Cl)ccc3C(F)(F)F)CCN4)ccn2)CC1
48 | > 260 °C | O=C(O)c1ccc(-c2ccc(Cl)s2)nc1
49 | 56.5 to 58 °C | Clc1cc(Br)c2c(c1)OCCO2
50 | 241 to 243 °C | O=C(NCCO)c1ccccc1S(=O)(=O)Cc1c(O[C@H](Cn2ccnc2)c2ccccc2)ccc2c1CCCC2=O
51 | 235 to 237 °C | Oc1ccc2c(c1)CCN(Cc1ccc(-c3ccccc3)cc1)C2
52 | 62 to 65 °C | CCOC(=O)COC(=O)c1cc(-n2nc3ccc(Cl)cn3c2=O)c(F)cc1Cl
53 | 194 to 195 °C | Cc1oc(-c2ccccc2)nc1COc1ccc(CN(O)C(=O)NO)cc1
54 | 189 to 192 °C | Cc1ccc(-c2ccc3c(c2)C=C(C(=O)N2CCC(NC(=O)C(F)(F)F)CC2)CCO3)cc1
55 | 150 to 152 °C | COc1ccc(C2CCN(c3c(C)c(C)c4c(c3C)C(O)(c3ccc(F)cc3)C(C)(C)O4)CC2)cc1OC (stereo unspecified)
56 | 209 to 210 °C | CCCSc1cc(C(=O)O)cc(S(N)(=O)=O)c1Oc1ccccc1
57 | 274 to 275 °C | CN1C[C@@H]2C[C@H]1CN2c1cc2c(cc1F)c(=O)c(C=O)cn2C1CC1
58 | 189 to 192 °C | COc1cn(-c2cccc3cccnc23)nc(-c2ccnn2-c2ccccc2)c1=O
59 | 100 to 101 °C | CCCCC[C@H]1CC[C@H](CCCOc2ccc(O)cc2)CC1
60 | 132 °C | CCOC(=O)C(Cc1ccc(N)s1)NC(=O)OC(C)(C)C (racemic)
61 | 233 to 234 °C | CN1C(=O)SC(=Cc2ccc([N+](=O)[O-])cc2)C1=O
62 | 152 °C | CCn1cc(C=O)c2nc(N3CCN(Cc4ccccc4)CC3)ncc2c1=O
63 | 89 to 92 °C | COc1ccc([N+](=O)[O-])c(C=CN2CCCC2)c1Cl

Row | melting point | SMILES
64 | 161 °C | CSc1nn(C(=O)Oc2ccccc2)c(=O)n1N
65 | 134 to 135 °C | CC(C)(C)C(=O)OCNc1nc(OCc2ccc(F)cc2)ncc1F
66 | 150 °C | CCc1cn(C2CC(O)(C(C)=O)C(CO)O2)c(=O)[nH]c1=O (stereo unspecified)
67 | 188 to 190 °C | CSc1nc(=O)n(C(C)C)c(=O)[nH]1
68 | 170 to 171 °C | CC(C)(C)CC(=O)N1CCN(c2ccc3ncc(Br)n3n2)CC1
69 | 144 to 145 °C | COCCCc1nnc(-c2ccc(-c3ccccc3)nc2)n1-c1cccc(C#N)c1C
70 | 169 to 171 °C | COc1ccc(N2C(=O)C(=C3CCCN3)c3ccccc32)cc1F
71 | 94 to 97.5 °C | CCCc1c(OCCCCCOc2cc3c(cc2C(C)=O)CC[C@@H](C(=O)O)O3)ccc(C(C)=O)c1O
72 | 280 to 282 °C | Cc1ncnc2nc(N)c(-c3c(Cl)cccc3Cl)cc12
73 | 161 to 162 °C | CC(=O)NCc1ccc2c(c1)N(C1CCN(CCc3cccc(F)c3)CC1)CC2
74 | 112 to 113 °C | COc1cc2ccc(CCOS(C)(=O)=O)cc2cc1OC
75 | 167 to 168 °C | COc1c2occc2cc2c(C)cc(=O)oc12
76 | 105 to 107 °C | Cc1ccc(NC(=N)c2ccccn2)cc1C
77 | 94.6 to 94.8 °C | CCOC(=O)c1cnc(Oc2cc(OCCOC)ccc2CCCOC(=O)NCC2CC2)c(Cl)c1
78 | 119 to 120 °C | COCc1c(C(=O)OC(C)C)ncc2[nH]c3cccc(Oc4ccc(Cl)cc4)c3c12
79 | 152 to 154 °C | CC(=O)NCCCn1nnnc1S
80 | 161 to 162 °C | Cc1cc(C)c2c(-c3cccc(Cl)c3)cc(=O)n(C)c2n1
81 | 81 to 82 °C | COC(=O)c1ccc(OC)nc1F
82 | 98 to 99 °C | CCOc1noc2c1C(=O)CCC2
83 | 132 °C | COC(=O)c1sc(-c2ccc(F)cc2)cc1-c1nnn(C)n1

Row | melting point | SMILES
84 | 105 to 111 °C | CC(C)(C)c1cc(C(=O)Nc2cccc(OCc3cncc(Br)c3)c2)ccc1O
85 | 106 °C | CCOC(=O)Cc1nc2c(OCc3ccccc3)cccc2n1C
86 | 150 to 151 °C | Cc1nn(-c2ccccn2)cc1COc1ccc(COc2ncccc2CC(=O)O)cc1
87 | 138 °C | Cc1cc(COc2ccc(S(=O)(=O)NC[C@@H](C(=O)NO)N3CCOCC3)cc2)c2ccccc2n1
88 | 111 to 112 °C | CSC1NC(=O)N(C2CCCCC2)C(=O)N1N=C(C)C (stereo unspecified)
89 | 149 °C | Cc1noc(C)c1S(=O)(=O)Nc1cccc(C=C2c3ccccc3CCc3ccccc32)c1
90 | > 260 °C | COC1(C2=NCCN2)COc2c(F)cccc2O1 (stereo unspecified)
91 | 104 to 105 °C | CCOc1nn(-c2ccc(C(F)(F)F)cn2)cc1CCCOc1ccc(CCC(=O)O)c(OC(C)C)c1
92 | 157 °C | CCC(Cc1c(I)cc(I)c(NC(=O)CCl)c1I)C(=O)O (stereo unspecified)
93 | 167 to 168 °C | CCOC(=O)c1cccc(-c2cn(C)cc(-c3ccccc3)c2=O)c1
94 | 158 to 159 °C | CCCCCC(=O)OCc1nccc2[nH]c(=O)ccc12
95 | 49 to 51 °C | Oc1ccc(OCc2ccccc2)c(Cl)c1
96 | 162 to 163 °C | O=C(NCCO)c1cccc(-c2ccc3c(c2)N(c2cccc(Cl)c2Cl)CC3)c1
97 | 286 to 288 °C | O=C(Nc1ccc2nc(S)[nH]c2c1)C(=O)N1CCC(Cc2ccc(F)cc2)CC1
98 | 73 to 74 °C | CN(C)c1ccc(C2(C#N)CCCC2)cc1
99 | 96 to 97 °C | CCCC1=C(Br)c2cc3c(cc2C1)OCO3
100 | 132 to 134 °C | CC(C)(C)OC(=O)N1CCc2ccc3ccn(CCOc4ccccc4F)c3c2CC1
101 | 158 to 159 °C | Cc1cc(=O)c(Oc2ccc(F)cc2F)c(-c2ccc(S(C)=O)cc2)o1 (stereo unspecified)
